We go through two compounds from patent publication US20200046654A1, “BUPROPION AND PHARMACEUTICAL COMPOSITION FOR TREATING CANCER AND METHOD FOR INHIBITING MIGRATION OF TUMOR CELLS” (NATIONAL CHIAO TUNG UNIVERSITY, priority 2018, published 2020).

Test [1] concerns MDA-MB-231 cells. Briefly: cell invasion assay (Matrigel invasion chambers). The format is cell-based, human. Particulars: 48 hours, with or without nicotine. Here is the method: The inhibitory effect of bupropion on tumor invasion was tested by cell invasion assay. MDA-MB-231 cells were plated on to Matrigel invasion chambers in serum-starved medium, and the cells in the lower chamber were cultured using normal medium. The media in both of the upper and the lower chambers contained 0.1 μM bupropion, or 1 μM bupropion, and the cells were treated with or without (control group) nicotine. After the cells were cultured for 48 hours, the upper chambers were washed with PBS and fixed with formaldehyde for 30 minutes. The cells in the upper chambers were stained with crystal violet for two hours, and photos were acquired under a microscope. The numbers of invading tumor cells were calculated by ImageJ software.

For test [2], the system named is MDA-MB-231 cells. Briefly: cell migration assay, MDA-MB-231. The format is cell-based, human. Particulars: 12 hours, with or without nicotine. Here is the method: (§1) MDA-MB-231 cells well treated with or without (control group) nicotine, DMSO, 0.1 μM, and 1 μM bupropion were then respectively added to the cells. Twelve hours after bupropion addition, the cells were fixed with formaldehyde, and stained with PI for 30 minutes; then photos of the cells were acquired. The numbers of migrating cells were calculated by imageJ software. This assay was repeated 3 times.

The test system of the next test is MDA-MB-453. The experiment in a line: cell migration assay, MDA-MB-453. The test is classed as cell-based, human. Here is the method:
as §1
In addition, a HER2 overexpression subtype of a breast cancer cell line, MDA-MB-453, was used to test the inhibitory effect of bupropion on tumor migration. The experimental method was the same as the cell migration assay of Example 7 above.

Test [3] deals with MDA-MB-231 cells with a luminescence reporter gene. The experiment in a line: MDA-MB-231-based spontaneous pulmonary metastasis animal model. The test is classed as in vivo, SCID mice. Particulars: two months; for number of the migrating tumor cells to the lungs (photon flux): bupropion i.p. three times a week, 100 or 200 μg per kilogram. The protocol: MDA-MB-231 cells with a luminescence reporter gene were implanted into severe combined immunodeficiency (SCID) mice. The nicotine treatment was carried out by adding nicotine (10 μg/ml) to the drinking water of the mice. The mice were injected intraperitoneally with bupropion three times a week at doses of 100 or 200 μg per kilogram. After two months, the mice were sacrificed and the lungs were dissected. IVIS was used to take the luminescence images of the lungs. The photon influx measured in the images represents the metastasis level of the mouse tumor cells to the lung tissue.

In another test the target is CHRNA9/CFP and ERBB2/YFP (Homo sapiens, UniProt Q9UGM1). The source says: In order to further investigate the interaction between CHRNA9 and ERBB2 ex vivo, a plasmid expressing CHRNA9/CFP and a plasmid expressing ERBB2/YFP were constructed and then co-transfected into MDA-MB-231 cells. FRET and fluorescence-lifetime imaging microscopy (FLIM) were used.
To further clarify whether CHRNA9 and ERBB2 are dissociated after nicotine exposure, two-photon FLIM was used to monitor the FRET activity between CHRNA9/CFP and ERBB2/YFP. The plasmids expressing CHRNA9/CFP and the plasmids expressing ERBB2/YFP were co-transfected into MDA-MB-231 cells. After two days, the cells were treated with 10 μM nicotine.

Another test has as its target CHRNA9/ERBB2 complex (Homo sapiens, UniProt Q9UGM1). Particulars: oral nicotine, at 30 minutes of exposure, vs before exposure.

Structures are written as SMILES.

Sequence of CHRNA9/CFP and ERBB2/YFP (Q9UGM1 23-479): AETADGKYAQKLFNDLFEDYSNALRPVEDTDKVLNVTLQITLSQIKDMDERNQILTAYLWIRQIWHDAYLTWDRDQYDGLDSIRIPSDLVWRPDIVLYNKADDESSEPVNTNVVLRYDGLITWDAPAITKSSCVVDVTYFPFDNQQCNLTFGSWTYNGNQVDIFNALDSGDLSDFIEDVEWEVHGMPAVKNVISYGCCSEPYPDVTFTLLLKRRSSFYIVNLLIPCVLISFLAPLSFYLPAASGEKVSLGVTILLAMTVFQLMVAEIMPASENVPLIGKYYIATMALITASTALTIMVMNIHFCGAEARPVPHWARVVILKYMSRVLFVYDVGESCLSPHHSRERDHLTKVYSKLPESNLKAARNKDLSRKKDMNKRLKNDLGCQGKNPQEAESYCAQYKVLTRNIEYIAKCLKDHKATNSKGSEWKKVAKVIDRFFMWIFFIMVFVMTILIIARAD
Sequence of CHRNA9/ERBB2 complex (Q9UGM1 23-479, one chain of several): as the sequence (Q9UGM1 23-479) above
Source text for CHRNA9/ERBB2 complex: Split luciferase complementation assay was used to investigate the association and dissociation between CHRNA9 and ERBB2.
The N terminal (Nluc) and the C terminal (Cluc) of luciferase were respectively constructed with ERBB2 and CHRNA9 to form the plasmids expressing the fusion proteins. When ERBB2 and CHRNA9 interact with each other, the Nluc and the Cluc are also close to each other to assemble together, and present luciferase activity. Therefore, after Luciferin addition, luminescence can be generated. When ERBB2 and CHRNA9 dissociate from each other, the Nluc and Cluc also dissociate from each other; therefore, no luciferase activity exists.
Then a xenograft animal model was used. Plasmids expressing ERBB2/Nluc fusion protein and plasmids expressing CHRNA9/Cluc fusion protein were co-transfected into MDA-MB-231 cells, then the cells expressing the fusion proteins were injected into the mammary pads of nude mice.

Regarding `CC(NC(C)(C)C)C(=O)c1cccc(Cl)c1` (stereo not drawn) [bupropion], the “invasion of MDA-MB-231 cells” value in the test with MDA-MB-231 cells [1] (0.1 μM bupropion) and in the test with MDA-MB-231 cells [1] (1 μM bupropion) was “significantly inhibited” throughout. Further, the “migration of MDA-MB-231 cells” value in the test on MDA-MB-231 cells [2] (0.1 μM bupropion) and in the test on MDA-MB-231 cells [2] (1 μM bupropion) was “significantly inhibited” throughout. For the same compound, the “migration of MDA-MB-453 cells” value in the test with MDA-MB-453 (0.1 μM bupropion) and in the test on MDA-MB-453 (1 μM bupropion) was “significantly inhibited” throughout. For the same compound, the “number of the migrating tumor cells to the lungs (photon flux)” value in test [3] (nicotine-free mice) and in test [3] (nicotine-treated mice) was “significantly decreased” in each case.

Take `CN1CCCC1c1cccnc1` (stereo not drawn) [nicotine]: the “FRET activity on the cell membrane between CHRNA9/CFP and ERBB2/YFP” value on CHRNA9/CFP and ERBB2/YFP (after 10 μM nicotine exposure, MDA-MB-231 cells) was “gradually decreased”. Besides, the “FRET activity on the membrane after removal of nicotine” value on CHRNA9/CFP and ERBB2/YFP (cells washed with PBS to remove nicotine) is recorded as “gradually recovered to the baseline”. In addition, the “number of the metastatic tumor cells in the lung tissues (photon flux)” value in test [3] (nicotine 10 μg/ml in drinking water) is “significantly increased”. At CHRNA9/ERBB2 complex, the “photon influx (luciferase activity in tumor region) relative to control group” value was found to be 26.3%.
